Assay in all cases: MIC by serial dilution in Iso-sensitest agar
Common to all, as to assay type: cell-based

In one experiment the test system is E.Coli JT 425. The following applies: Escherichia coli, JT425, 10⁴ colony-forming units, overnight at 37°C, lowest concentration to inhibit growth. Here is the method:
(§1) Minimum Inhibitory Concentration (MIC) values of compounds of the invention against a variety of organisms were determined by serial dilution in Iso-sensitest agar (from Oxoid Ltd. Basingstoke, England). The plates were inoculated with 10⁴ colony-forming units and incubated overnight at 37°C. The MIC values recorded in Table I were the lowest concentration of antibiotic to inhibit growth. Comparative data for Piperacillin (6β-[D-2-[(4-ethyl-2, 3-dioxopiperazin-1-yl)carbonylamino]-2-phenylacetamido] -penicillanic acid, sodium salt) and for the compound 6α-formamido-6β-[D-2-[(4-ethyl-2, 3-dioxopiperazin-1-yl)carbonylamino]-2- phenyl acetamido]-penicillanic acid, sodium salt (Compound A) disclosed in U.K. Patent GB-2107307B, are also given.

In a further experiment the test system is K.pneumoniae T767. The following applies: Klebsiella pneumoniae, 10⁴ colony-forming units, overnight at 37°C, lowest concentration to inhibit growth. Here is the method: as §1
The test system of a further experiment is S agalactiae 2798. Particulars: 10⁴ colony-forming units, overnight at 37°C, lowest concentration to inhibit growth. As to the method:
as §1

The subject of another experiment is P.aerginosa 10662. Particulars: 10⁴ colony-forming units, overnight at 37°C, lowest concentration to inhibit growth. Here is the method:
as §1

The next experiment has as its system E.Coli DC RTEM. Particulars: Escherichia coli. Here is the method: as §1
The test system of a further experiment is P.aeruginosa K79961. The following applies: Pseudomonas aeruginosa, 10⁴ colony-forming units, overnight at 37°C, lowest concentration to inhibit growth. Here is the method:
as §1

Counter-ions that a name gives are not always drawn.

A word on the MIC: it is the lowest concentration found to suppress growth. Lower therefore signals greater potency. Take `CCN1CCN(C(=O)N[C@@H](C(=O)N[C@]2(NC=O)C(=O)N3[C@@H](C(=O)O)C(C)(C)S[C@@H]32)c2ccccc2)C(=O)C1=O` [Compound A, 6α-formamido-6β-[D-2-[(4-ethyl-2,3-dioxopiperazin-1-yl)carbonylamino]-2-phenylacetamido]-penicillanic acid, sodium salt, reference compound]: the MIC in the experiment on E.Coli JT 425 is 0.25 µg/mL; against K.pneumoniae T767 it was 0.12 µg/mL; in the experiment with S agalactiae 2798, 64 µg/mL; against P.aerginosa 10662, 1 µg/mL; in the experiment with E.Coli DC RTEM it was 0.12 µg/mL; in the experiment with P.aeruginosa K79961, 0.12 µg/mL.

For the compound `CC1(C)S[C@@H]2[C@H](NC(=O)[C@H](NC(=O)N3CCN(Cc4ccc(O)c(O)c4)C(=O)C3=O)c3ccccc3)C(=O)N2[C@H]1C(=O)O` [Example 1, Sodium 6β-[D-2[[4-(3,4-Dihydroxybenzyl)-2,3-dioxopiperazin-1-yl]carbonylamino]-2-phenylacetamido]penicillanate], the MIC against E.Coli JT 425 is 1 µg/mL; against K.pneumoniae T767, 0.5 µg/mL; against S agalactiae 2798, 0.25 µg/mL; with P.aerginosa 10662, 0.12 µg/mL; in the experiment with E.Coli DC RTEM, 4 µg/mL; in the experiment with P.aeruginosa K79961, under 0.06 µg/mL.

As to `CC1(C)S[C@H]2N(C(=O)[C@@]2(NC=O)NC(=O)[C@H](NC(=O)N2CCN(Cc3ccc(O)c(O)c3)C(=O)C2=O)c2ccccc2)[C@H]1C(=O)O` [Example 2, Sodium 6β-[D-2[[4-(3,4-Dihydroxybenzyl)-2,3-dioxopiperazin-1-yl]carbonylamino]-2-phenylacetamido]-6α-formamidopenicillanate], the minimal inhibitory concentration (MIC) was under 0.03 µg/mL in the experiment with E.Coli JT 425; under 0.03 µg/mL against K.pneumoniae T767; 16 µg/mL against S agalactiae 2798; 0.12 µg/mL in the experiment on P.aerginosa 10662; under 0.03 µg/mL against E.Coli DC RTEM; 0.12 µg/mL in the experiment on P.aeruginosa K79961.

With `CO[C@@]1(NC(=O)[C@H](NC(=O)N2CCN(Cc3ccc(O)c(O)c3)C(=O)C2=O)c2ccccc2)C(=O)N2[C@@H](C(=O)O)C(C)(C)S[C@@H]21` [Example 3, Sodium 6β-[D-2-[[4-(3,4-Dihydroxybenzyl)-2,3-dioxopiperazin-1-yl]carbonylamino]-2-phenylacetamido]-6α-methoxypenicillanate], the MIC was 16 µg/mL against E.Coli JT 425; 0.25 µg/mL against K.pneumoniae T767; over 128 µg/mL with S agalactiae 2798; 4 µg/mL with P.aerginosa 10662; 2 µg/mL against E.Coli DC RTEM; 1 µg/mL in the experiment with P.aeruginosa K79961.

As for `CC1(C)S[C@H]2N(C(=O)[C@@]2(NC=O)NC(=O)[C@H](NC(=O)N2CCN(Cc3cc(O)c(O)cn3)C(=O)C2=O)c2ccccc2)[C@H]1C(=O)O` [Example 6, Sodium 6β-[D-2-[[4-(4,5-Dihydroxypyridin-2-ylmethyl)-2,3-dioxopiperazin-1-yl]carbonylamino]-2-phenylacetamido]-6α-formamidopenicillanate], the MIC with E.Coli JT 425 is 0.25 µg/mL; against K.pneumoniae T767, 0.06 µg/mL; in the experiment with S agalactiae 2798, over 32 µg/mL; in the experiment on P.aerginosa 10662 it was 1 µg/mL; against E.Coli DC RTEM, 0.06 µg/mL; with P.aeruginosa K79961, 0.3 µg/mL.

`CCN1CCN(C(=O)N[C@@H](C(=O)N[C@@H]2C(=O)N3[C@@H]2SC(C)(C)[C@@H]3C(=O)O)c2ccccc2)C(=O)C1=O` [Piperacillin, 6β-[D-2-[(4-ethyl-2,3-dioxopiperazin-1-yl)carbonylamino]-2-phenylacetamido] -penicillanic acid, sodium salt, reference compound]: the minimal inhibitory concentration (MIC) with E.Coli JT 425 is 32 µg/mL; with K.pneumoniae T767, 8 µg/mL; with S agalactiae 2798, 0.5 µg/mL; in the experiment on P.aerginosa 10662, 8 µg/mL; against E.Coli DC RTEM, over 128 µg/mL; against P.aeruginosa K79961 it was 0.25 µg/mL.
